These results are taken from PubChem BioAssay AID743317 (Broad Institute, 2014).

Results filed as inconclusive are left out. Activity calls are given as the source filed them.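 The calls were made as follows: active = fitted curve reaches 40% activation at or below the top valid dose, and every replicate test is called active; inconclusive = replicate tests disagree, some active and some inactive; inactive = all replicate tests inactive, including activity in the wrong direction.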 Some results are limits rather than exact numbers.

For one assay, the target named is Endoplasmic reticulum aminopeptidase 1 (Homo sapiens) (UniProt Q9NZ08). The assay can be described thus: ERAP1 aminopeptidase activity change, dose response, biochemical, fluorescence, cherry-pick (AID 743317). The conditions noted are these: ERAP1 enzyme, Leu-AMC fluorescence, 60 min.
Chain of Endoplasmic reticulum aminopeptidase 1 (Homo sapiens) (Q9NZ08 whole entry, looked up): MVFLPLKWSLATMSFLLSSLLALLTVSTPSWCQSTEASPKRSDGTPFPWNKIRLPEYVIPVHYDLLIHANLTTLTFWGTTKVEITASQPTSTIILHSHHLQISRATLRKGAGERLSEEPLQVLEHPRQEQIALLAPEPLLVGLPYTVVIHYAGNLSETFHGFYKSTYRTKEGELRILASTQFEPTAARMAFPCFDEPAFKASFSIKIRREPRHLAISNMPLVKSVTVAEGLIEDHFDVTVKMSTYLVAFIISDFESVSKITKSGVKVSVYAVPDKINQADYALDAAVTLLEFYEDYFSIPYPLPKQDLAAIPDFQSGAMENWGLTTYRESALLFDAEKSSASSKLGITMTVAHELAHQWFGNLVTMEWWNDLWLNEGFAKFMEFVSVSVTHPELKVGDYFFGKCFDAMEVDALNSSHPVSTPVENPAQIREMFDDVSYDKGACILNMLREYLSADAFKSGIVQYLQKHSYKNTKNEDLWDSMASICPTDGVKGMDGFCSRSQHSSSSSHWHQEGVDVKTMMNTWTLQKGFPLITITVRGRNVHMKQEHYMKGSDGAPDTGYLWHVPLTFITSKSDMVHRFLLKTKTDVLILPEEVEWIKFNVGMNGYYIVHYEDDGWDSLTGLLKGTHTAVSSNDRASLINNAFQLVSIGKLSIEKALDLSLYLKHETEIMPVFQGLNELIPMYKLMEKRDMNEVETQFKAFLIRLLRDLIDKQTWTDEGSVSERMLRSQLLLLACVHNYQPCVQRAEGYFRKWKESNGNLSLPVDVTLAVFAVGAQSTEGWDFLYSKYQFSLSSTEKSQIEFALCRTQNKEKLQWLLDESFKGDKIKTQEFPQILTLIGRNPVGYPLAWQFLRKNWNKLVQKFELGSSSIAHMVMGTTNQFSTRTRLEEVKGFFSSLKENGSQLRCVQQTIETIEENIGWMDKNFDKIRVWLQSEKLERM
For the compound `COc1ccc(CN(C)C[C@@H]2OCCCC[C@@H](C)Oc3ccc(NS(=O)(=O)c4cccs4)cc3C(=O)N([C@H](C)CO)C[C@@H]2C)cc1`, the AC40 is 161 nM.

For `C[C@H]1CN([C@@H](C)CO)C(=O)c2cccc(NC(=O)Nc3ccc(C(F)(F)F)cc3)c2O[C@@H]1CN(C)C`, the AC40 is 1410 nM.

As for `COc1ccc(CN(C)C[C@H]2OCCCC[C@@H](C)Oc3ccc(NS(=O)(=O)c4cccs4)cc3C(=O)N([C@@H](C)CO)C[C@@H]2C)cc1`, the AC40 was 4590 nM.

On to `C[C@@H]1CCCCO[C@@H](CN(C)Cc2ccc3c(c2)OCO3)[C@@H](C)CN([C@@H](C)CO)C(=O)c2cc(NS(=O)(=O)c3ccccc3)ccc2O1`, for which the AC40 is 563 nM.

In the case of `C[C@H](CO)N1C[C@H](C)[C@H](CN(C)CC2CCCCC2)Oc2c(NC(=O)Nc3ccc4c(c3)OCO4)cccc2C1=O`, the AC40 was 2550 nM.

As for `CCCNC(=O)C[C@@H]1CC[C@@H]2[C@H](COC[C@H](O)CN2C(=O)Nc2cccc(Cl)c2)O1`, the AC40 was 6770 nM.

Turning to `COc1cccc(CN(C)Cc2cc(=O)oc3cc(O)c(Cl)cc23)c1`, the AC40 was 2900 nM.

Consider `Cc1ccc2nc3c(cc(C(=O)NCc4ccccc4)c(=N)n3CCCn3ccnc3)c(=O)n2c1`, for which the AC40 is 8840 nM.

Turning to `Cc1ccc(S(=O)(=O)c2cc3ccc(O)cc3oc2=O)cc1C`, the AC40 is 2990 nM.

Turning to `C[C@@H]1CCCCO[C@H](CN(C)Cc2ccccc2)[C@H](C)CN([C@H](C)CO)C(=O)c2cc(NS(=O)(=O)c3ccccc3)ccc2O1`, the AC40 is 358 nM.

On to `COc1ccc(CN(C)C[C@@H]2OCCCC[C@H](C)Oc3ccc(NS(=O)(=O)c4cccs4)cc3C(=O)N([C@@H](C)CO)C[C@@H]2C)cc1`, for which the AC40 is 1190 nM.

For `COc1ccc(CN(C)C[C@@H]2OCCCC[C@@H](C)Oc3ccc(NS(=O)(=O)c4cccs4)cc3C(=O)N([C@H](C)CO)C[C@H]2C)cc1`, the AC40 is 1150 nM.

Take `CCCN(C)C[C@@H]1OCCCC[C@@H](C)Oc2ccc(NS(=O)(=O)c3cccs3)cc2C(=O)N([C@H](C)CO)C[C@@H]1C`: the AC40 is 107 nM.

Take `C[C@H](CO)N1C[C@H](C)[C@@H](CN(C)CC2CC2)Oc2c(NC(=O)Nc3ccc(C(F)(F)F)cc3)cccc2C1=O`: the AC40 was 757 nM.

For `C[C@@H]1CCCCO[C@@H](CN(C)C(=O)CCC(F)(F)F)[C@@H](C)CN([C@@H](C)CO)C(=O)c2cc(NS(=O)(=O)c3ccc(Cl)cc3)ccc2O1`, the AC40 is 191 nM.

Regarding `C[C@@H]1CCCCO[C@H](CN(C)Cc2ccccc2)[C@H](C)CN([C@@H](C)CO)C(=O)c2cc(NS(=O)(=O)c3cccs3)ccc2O1`, the AC40 is 607 nM.

As for `CC1CN(Cc2cc(=O)oc3cc(O)c(Cl)cc23)CC(C)O1` (centres undefined), the AC40 is 3400 nM.

For the compound `COc1ccc(CN(C)C[C@@H]2OCCCC[C@@H](C)Oc3ccc(NS(=O)(=O)c4c(C)noc4C)cc3C(=O)N([C@@H](C)CO)C[C@@H]2C)cc1`, the AC40 was 1880 nM.

As for `C[C@@H]1CCCCO[C@@H](CN(C)Cc2ccccc2)[C@@H](C)CN([C@H](C)CO)C(=O)c2cc(NS(=O)(=O)c3cccs3)ccc2O1`, the AC40 was 158 nM.

For `C[C@@H]1CCCCO[C@@H](CN(C)C)[C@H](C)CN([C@@H](C)CO)C(=O)c2cc(NC(=O)Nc3ccc(C(F)(F)F)cc3)ccc2O1`, the AC40 is 516 nM.

As to `COc1ccc(CN(C)C[C@H]2OCCCC[C@@H](C)Oc3ccc(NS(=O)(=O)c4cccs4)cc3C(=O)N([C@H](C)CO)C[C@H]2C)cc1`, the AC40 is 1230 nM.

As to `Cc1noc(C)c1S(=O)(=O)Nc1ccc2c(c1)C(=O)N([C@H](C)CO)C[C@@H](C)[C@@H](CN(C)CC1CCCCC1)OCCCC[C@@H](C)O2`, the AC40 was 5460 nM.

On to `C[C@@H]1CCCCO[C@@H](CN(C)CC2CCCCC2)[C@H](C)CN([C@@H](C)CO)C(=O)c2cc(NC(=O)Nc3ccccc3)ccc2O1`, for which the AC40 was 357 nM.

Regarding `CCN(CC)c1ccc2c(C)c(Cl)c(=O)oc2c1`, the AC40 was 8190 nM.

As to `Cc1noc(C)c1S(=O)(=O)N(C)C[C@@H]1OCCCC[C@@H](C)Oc2ccc(NS(=O)(=O)c3cccs3)cc2C(=O)N([C@@H](C)CO)C[C@@H]1C`, the AC40 was less than 80 nM.

`C[C@H](CO)N1C[C@H](C)[C@H](CN(C)CC2CCCCC2)Oc2c(NC(=O)Nc3ccc(C(F)(F)F)cc3)cccc2C1=O`: the AC40 was 565 nM.

As for `CCCN(C)C[C@@H]1OCCCC[C@H](C)Oc2ccc(NC(=O)Nc3ccc(F)cc3)cc2C(=O)N([C@H](C)CO)C[C@@H]1C`, the AC40 is 4370 nM.

`COc1ccc(CNCc2c(O)c(Cl)cc3c(C)c(C)c(=O)oc23)c(OC)c1`: the AC40 was 2190 nM.

For `CNC[C@H]1OCCCC[C@@H](C)Oc2ccc(NS(=O)(=O)c3ccc(C)cc3)cc2C(=O)N([C@@H](C)CO)C[C@H]1C`, the AC40 is 3420 nM.

Regarding `C[C@@H]1CN([C@H](C)CO)C(=O)c2cc(NC(=O)Nc3ccc(F)cc3)ccc2O[C@H]1CN(C)Cc1ccc(C(=O)O)cc1`, the AC40 was 484 nM.

As for `COc1ccc(NC(=O)Nc2ccc3c(c2)C(=O)N([C@H](C)CO)C[C@@H](C)[C@H](CN(C)Cc2ccc(C(=O)O)cc2)OCCCC[C@@H](C)O3)cc1`, the AC40 is 3300 nM.

With `CCCN(C)C[C@@H]1OCCCC[C@@H](C)Oc2ccc(NS(=O)(=O)c3ccccc3)cc2C(=O)N([C@H](C)CO)C[C@@H]1C`, the AC40 is 1040 nM.

With `COc1ccc(S(=O)(=O)Nc2ccc3c(c2)C(=O)N([C@@H](C)CO)C[C@H](C)[C@H](CN(C)C)OCCCC[C@@H](C)O3)cc1`, the AC40 is 419 nM.

`O=C(C[C@H]1CC[C@H]2[C@@H](COC[C@@H](O)CN2C(=O)Nc2cccc(Cl)c2)O1)N1CCCCC1`: the AC40 was 211 nM.

Turning to `C[C@@H]1CCCCO[C@@H](CN(C)Cc2ccc(C(=O)O)cc2)[C@@H](C)CN([C@H](C)CO)C(=O)c2cc(NC(=O)Nc3cccc4ccccc34)ccc2O1`, the AC40 was 408 nM.

As for `CC(=O)Oc1cc2oc(=O)cc(C)c2cc1Cl`, the AC40 was 1020 nM.

As to `Cc1ccc(-c2cc(C(=O)N3CCCC3)c3ccccc3n2)s1`, the AC40 was 6450 nM.

On to `N#Cc1c(N)n(CCNC(=O)c2ccccc2)c2nc3ccccc3nc12`, for which the AC40 was 10000 nM.

With `O=c1cc(CN2CCN(Cc3ccccc3)CC2)c2ccc(O)cc2o1`, the AC40 is 1680 nM.

`C[C@@H]1CCCCO[C@@H](CN(C)C(=O)CCC(F)(F)F)[C@@H](C)CN([C@@H](C)CO)C(=O)c2cc(NS(=O)(=O)c3ccccc3)ccc2O1`: the AC40 is 1730 nM.

Take `Cc1ccccc1-c1ccc2c(c1)O[C@@H](CN(C)Cc1ccc(C(=O)O)cc1)[C@@H](C)CN([C@H](C)CO)S2(=O)=O`: the AC40 is 4290 nM.

`CCCN(C)C[C@@H]1OCCCC[C@@H](C)Oc2ccc(NS(=O)(=O)c3ccc(F)cc3)cc2C(=O)N([C@H](C)CO)C[C@@H]1C`: the AC40 is 3880 nM.

The assay is the same for the next values; noted with them: ERAP1 enzyme, Leu-AMC fluorescence, 60 min; at 5.6 µM (top of the series).
For the compound `O=c1ccc2cc(OC3O[C@H](CO)[C@@H](O)[C@H](O)[C@H]3O)c(O)cc2o1` (some centres undefined), the activity increase (activation) is -95.4% (inactive).

For `O=c1ccc2cc(O[C@@H]3O[C@@H](CO)[C@H](O)[C@@H](O)[C@@H]3O)c(O)cc2o1`, the activity increase (activation) was -79.1% (inactive).

Staying with this assay, now noted: ERAP1 enzyme, Leu-AMC fluorescence, 60 min; at 11 µM (top of the series).
As for `COc1ccc(-c2cc3ccc(O)cc3oc2=O)cc1`, the activity increase (activation) is -75.7% (inactive).

As to `Cc1c(-c2ccccc2)c(=O)oc2cc(O)ccc12`, the activity increase (activation) was -87.3% (inactive).

As to `Cc1c(Cc2ccccc2)c(=O)oc2cc(O)ccc12`, the activity increase (activation) was -39.3% (inactive).

With `Cc1cc(=O)oc2c(CN3CCCCC3)c(O)ccc12`, the activity increase (activation) is -81.1% (inactive).

Turning to `CCc1c(C)c2cc(Cl)c(O)c(CN(C)C)c2oc1=O`, the activity increase (activation) is -92.5% (inactive).

`Cc1cc(=O)oc2c(CN3CCN(C)CC3)c(O)c(Cl)cc12`: the activity increase (activation) was -69.3% (inactive).

For the compound `C[C@@H]1CN([C@@H](C)CO)C(=O)c2cccc(NC(=O)Nc3ccc(C(F)(F)F)cc3)c2O[C@@H]1CN(C)C`, the activity increase (activation) is 30.6% (inactive).

`CCCc1cc(=O)oc2c(CN(CC)CC)c(O)c(Cl)cc12`: the activity increase (activation) was -58.6% (inactive).

Consider `Cc1c(C)c2ccc(O)c(CN3CCCC3)c2oc1=O`, for which the activity increase (activation) was -57% (inactive).

For `CC1CCCC(C)N1CCCNC(=O)c1cc2c(s1)-c1ccccc1OC2` (centres undefined), the activity increase (activation) was -45.6% (inactive).

Consider `Cc1c(O)ccc2cc(S(=O)(=O)c3ccccc3)c(=O)oc12`, for which the activity increase (activation) was -94% (inactive).

Consider `Cc1cc(=O)oc2c(CN3CCCC3)c(O)c(Cl)cc12`, for which the activity increase (activation) is -73.8% (inactive).

For `COc1cc2ccc(=O)oc2cc1O`, the activity increase (activation) was -97.7% (inactive).

Regarding `CN1[C@@H]2c3ccc(/C=C/c4ccccc4)c(=O)n3C[C@@H]2[C@@H](CO)[C@@H]1C(=O)NC1CCCC1`, the activity increase (activation) was -14.6% (inactive).

Take `Cc1cc(=O)oc2c(CN3CCCC3)c(O)ccc12`: the activity increase (activation) is -44% (inactive).

Take `O=c1oc2cc(O)ccc2cc1S(=O)(=O)c1ccccc1`: the activity increase (activation) was 349% (inactive).

Consider `Cc1cc(N(C)Cc2ccccc2)nc2cc(O)ccc12`, for which the activity increase (activation) is -54% (inactive).

Consider `CN1c2ccc(-c3ccc(C#N)cc3)cc2[C@@H]2[C@@H](CCN2C(=O)CC2CC2)[C@@H]1CO`, for which the activity increase (activation) was -8.63% (inactive).

In the case of `N#Cc1c(N2CCNCC2)nc(-c2ccco2)c2c1CCCC2`, the activity increase (activation) is -51.7% (inactive).

As to `CC(C)(C)c1cc(N2CCOCC2)n2ncc(-c3ccccc3)c2n1`, the activity increase (activation) is -42% (inactive).

As for `NC(=NCCc1c[nH]c2ccccc12)NS(=O)(=O)c1cc(F)ccc1F`, the activity increase (activation) was -59.5% (inactive).

With `O=S(=O)(c1ccc(N2CCC(c3ccc(Cl)cc3)=N2)cc1)N(CCO)CCO`, the activity increase (activation) was -40.9% (inactive).

Turning to `Cc1c(CC(=O)N2CCN(C(=O)C3COc4ccccc4O3)CC2)c(=O)oc2cc(O)c(Cl)cc12` (centres undefined), the activity increase (activation) is -33.4% (inactive).

Regarding `Cc1c(C)c2ccc(O)c(CN3CCN(C)CC3)c2oc1=O`, the activity increase (activation) was -52.8% (inactive).

In the case of `CCN(CC)Cc1c(O)c(Cl)cc2c(C)cc(=O)oc12`, the activity increase (activation) was -83.4% (inactive).
